# Test results published in patent US20260335335A1, “PHARMACEUTICAL FORMULATION COMPRISING A COATED TABLET” (Genentech, Inc., priority 2023, published 2026).
# “Also recorded” adds a separate entry of the source.
# Experiments:
# [1] = Light sensitivity of GDC-0077 (INAVOLISIB); format: physicochemical
# mutant PI3Kα = conditions: role: inhibitor; relative to non-mutant PI3Kα; cited from earlier work
# PI3Kα isoform = conditions: role: inhibitor; relative to PI3 KB, PI3K8 and PI3Ky isoforms; cited from earlier work
smiles,measurement,setting,value
"C[C@H](Nc1ccc2c(c1)OCCn1cc(N3C(=O)OC[C@H]3C(F)F)nc1-2)C(N)=O [GDC-0077 (INAVOLISIB), (S)-2-((2-((S)-4-(difluoromethyl)-2-oxooxazolidin-3-yl)-5,6-dihydrobenzo[f]imidazo[1,2-d][1,4]oxazepin-9-yl)amino)propanamide]",Light sensitivity (in words),[1],degrades under light stress conditions; also recorded: sensitive to light
same,Selectivity for mutant PI3Kα (in words),mutant PI3Kα,selective for mutant PI3Kα expressing tumors relative to non-mutant PI3Kα expressing cells; also recorded: selective activity in modulating mutant forms of the PI3Kα (alpha) isoform
same,Selectivity for PI3Kα isoform (in words),PI3Kα isoform,"selectively inhibits the PI3Kα isoform relative to the PI3 KB, PI3K8, and PI3Ky isoforms"
